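Method: 48-hour compound exposure of cells in 96-well plates, five concentrations, linear interpolation of endpoints. Abbreviation: GI50, concentration required for 50% inhibition of growth.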 Activity calls are given as the source filed them. No stated cut-off is given here; in the data, active = GI50 up to about 1.1 µM and inactive = higher.
Assays:
Assay in all cases: NCI-60 cell line screen, 48 h
HCT-116 = system: HCT-116
UO-31 = system: UO-31
SF-268 = system: SF-268
OVCAR-5 = system: OVCAR-5
IGROV-1 = system: IGROV-1
SW-620 = system: SW-620
HOP-62 = system: HOP-62
RXF 393 = system: RXF 393
NCI/ADR-RES = system: NCI/ADR-RES
HOP-92 = system: HOP-92
MDA-MB-435 = system: MDA-MB-435
OVCAR-3 = system: OVCAR-3
RPMI-8226 = system: RPMI-8226
A498 = system: A498
Malme-3M = system: Malme-3M
SNB-75 = system: SNB-75
HCT-15 = system: HCT-15
SF-539 = system: SF-539
MOLT-4 = system: MOLT-4
HOP-18 = system: HOP-18

Row | Structure (SMILES) | GI50 (HCT-116) | GI50 (UO-31) | GI50 (SF-268) | GI50 (OVCAR-5) | GI50 (IGROV-1) | GI50 (SW-620) | GI50 (HOP-62) | GI50 (RXF 393) | GI50 (NCI/ADR-RES) | GI50 (HOP-92) | GI50 (MDA-MB-435) | GI50 (OVCAR-3) | GI50 (RPMI-8226) | GI50 (A498) | GI50 (Malme-3M) | GI50 (SNB-75) | GI50 (HCT-15) [µM] | GI50 (SF-539) | GI50 (MOLT-4) | GI50 (HOP-18)
1 | Oc1ccc(SCc2cc(O)ccc2O)cc1 | 11.2 µM (inactive) | 6.05 µM (inactive) | 9.04 µM (inactive) | 20.4 µM (inactive) | 10.1 µM (inactive) | 19.1 µM (inactive) | 14.8 µM (inactive) | 11.9 µM (inactive) | 14.4 µM (inactive) | 22.3 µM (inactive) | 13.1 µM (inactive) | 7.69 µM (inactive) | 2.67 µM (inactive) | 34 µM (inactive) | 19.5 µM (inactive) | 20.9 µM (inactive) | 9.55 | 3.54 µM (inactive) | 3.86 µM (inactive) | 
2 | OC[C@@H]1CC#C/C=C\C#CC[C@@H]1CO | > 100 µM (inactive) | > 100 µM (inactive) | < 0.01 µM (active) | > 100 µM (inactive) | > 100 µM (inactive) |  | > 100 µM (inactive) | > 100 µM (inactive) |  | < 0.01 µM (active) |  | > 100 µM (inactive) | > 100 µM (inactive) |  | > 100 µM (inactive) |  | > 100 | > 100 µM (inactive) | > 100 µM (inactive) | > 100 µM (inactive)
3 | COC(=O)NN1C(C)=C(C(=O)OC)C2(C#N)C(C(=O)OC)=C(C)N(NC(=O)OC)C12N (stereo not drawn) | > 100 µM (inactive) | > 100 µM (inactive) | > 100 µM (inactive) | > 100 µM (inactive) | > 100 µM (inactive) | > 100 µM (inactive) | > 100 µM (inactive) |  |  | > 100 µM (inactive) |  |  | > 100 µM (inactive) | > 100 µM (inactive) | > 100 µM (inactive) |  | > 100 | > 100 µM (inactive) | > 100 µM (inactive) | > 100 µM (inactive)
4 | CN(C)CC1CCCC/C1=N/OC(=O)c1ccc(Cl)cc1 (stereo not drawn) | > 100 µM (inactive) | > 100 µM (inactive) | > 100 µM (inactive) | > 100 µM (inactive) | > 100 µM (inactive) | > 100 µM (inactive) | > 100 µM (inactive) | > 100 µM (inactive) |  | > 100 µM (inactive) |  | > 100 µM (inactive) | > 100 µM (inactive) | > 100 µM (inactive) | > 100 µM (inactive) | > 100 µM (inactive) | > 100 | > 100 µM (inactive) | > 100 µM (inactive) | > 100 µM (inactive)
5 | N#CC(C(=O)C(=O)Nc1ccc(Cl)c(Cl)c1)c1ccc(Cl)cc1 (stereo not drawn) | 23.6 µM (inactive) | 47.1 µM (inactive) | > 100 µM (inactive) | > 100 µM (inactive) | > 100 µM (inactive) | 16 µM (inactive) | > 100 µM (inactive) | > 100 µM (inactive) |  | 36.4 µM (inactive) |  | 37.7 µM (inactive) | 35.2 µM (inactive) | > 100 µM (inactive) | 97.3 µM (inactive) | > 100 µM (inactive) | 32.5 | > 100 µM (inactive) | 64.7 µM (inactive) | 41 µM (inactive)
6 | CCCCCCCCCOC(=S)NCCCCC | 22.2 µM (inactive) | 17.2 µM (inactive) | 37.2 µM (inactive) |  | 38.4 µM (inactive) | 32.7 µM (inactive) | 26.4 µM (inactive) | 19.9 µM (inactive) |  | 20.7 µM (inactive) |  |  | 19.5 µM (inactive) | 24.3 µM (inactive) | 29.8 µM (inactive) | 42.3 µM (inactive) | 23.9 | 20.8 µM (inactive) | 19 µM (inactive) | 33.4 µM (inactive)
7 | Cc1ccc(Oc2ccccc2N)cc1 | 9.51 µM (inactive) | 12.4 µM (inactive) | 46.1 µM (inactive) | 40.6 µM (inactive) | 50.4 µM (inactive) | 45.9 µM (inactive) | 39 µM (inactive) | 25.9 µM (inactive) |  | 37.8 µM (inactive) |  | 15.8 µM (inactive) | 33.7 µM (inactive) | > 100 µM (inactive) | > 100 µM (inactive) | 16 µM (inactive) | 19.5 | 16.7 µM (inactive) | 15.4 µM (inactive) | > 100 µM (inactive)
8 | CC1(C)S[C@@H]2[C@H](NC(=O)C3(N)CCCCC3)C(=O)N2[C@H]1C(=O)O [CYCLACILLIN] | > 100 µM (inactive) | > 100 µM (inactive) | > 100 µM (inactive) | > 100 µM (inactive) | > 100 µM (inactive) | > 100 µM (inactive) | > 100 µM (inactive) | > 100 µM (inactive) | > 100 µM (inactive) | > 100 µM (inactive) | > 100 µM (inactive) | > 100 µM (inactive) | > 100 µM (inactive) | > 100 µM (inactive) | > 100 µM (inactive) | > 100 µM (inactive) | > 100 | > 100 µM (inactive) | > 100 µM (inactive) | 

From ChEMBL document CHEMBL1201862, “PubChem BioAssay data set” (2004)
